# Test results taken from patent US20120052175A1 (priority 2010, published 2012).
# Assay: Moisture sensitivity test: hydrolytic degradation of isothiocyanate in aqueous phosphate buffer
# Assay type: physicochemical
# Settings: white mustard essential oil (about 25% 4-HBITC) suspended in aqueous phosphate buffer pH about 3.6, about 20-23° C., about 24 hours
# Protocol: Supercritical fluid chromatography can be used to determine the amount of 4-hydroxybenzyl isothiocyanate in a preservative composition. First an accurately weighed amount of the preservative composition is either dissolved in a compatible solvent such as ethyl acetate or ethyl acetate and ethanol mixtures or solid preservative compositions are extracted repeatedly with ethyl acetate.
# These solutions are analyzed by supercritical fluid chromatography using the method described by Buskov, S. et al., “Supercritical fluid chromatography as a method of analysis for the determination of 4-hydroxybenzylglucosinolate degradation products,” Journal of Biochemical and Biophysical Methods, Vol. 43, pp 157-174 (2000) with the following modifications. A Berger SFC 3D system equipped with a photodiode array detector (Berger Instruments Inc., Newark, Del.) is used for the analysis. […] The eluate is detected at 226 and 252 nm. […]
# Moisture sensitive isothiocyanate compounds are identified by suspending the isothiocyanate containing material in an aqueous phosphate buffer (pH of about 3.6) at room temperature. […] The extraction procedure is repeated after 24 hours and the level of residual isothiocyanate compound is measured by supercritical fluid chromatography. […]
structure (smiles),measurement,value
Oc1ccc(CN=C=S)cc1 [4-hydroxybenzyl isothiocyanate],percent reduction in level of 4-hydroxybenzyl isothiocyanate after 24 hours,about 72%
